# Like-named read-outs stand apart in the source and are kept apart here. Non-standard residues stand in square brackets, D forms with d. Residues, ends and D or L forms follow the SMILES beside them. pGlu = O=C1CC[C@@H](C(=O)O)N1
# Key:
# MCF-7 [1] = assay: Inhibition of colony formation by GnRH analogues (dose-survival, Example 48); format: cell-based, human; conditions: treated once
# Method: (§1) The examination gives accurate information about the cell-damaging effect of the substance tested as a function of varying doses. The treatment was carried out once; the colonies formed from the surviving cells were counted after 8 - 12 days. […] A part of the arrested cells again entered the cycle, another part of them might be destroyed (apoptosis). […] In the case of a dose-response investigation, colonies containing less than 15 cells were not counted. 300 cells were put into each Petri dishes of 3.5 cm in diameter. The treatment was once carried out 24 hours after setting, then the colonies formed were counted after 8 - 12 days. The cells were treated once after 24 hours with 1-50 µM of various GnRH analogues of Examples above or with 1 - 50 µM of GnRH-III, respectively. The percentages of inhibition obtained on MCF-7, MDA-MB-231, PC3 and Ishikawa cells, respectively, together with the dose of the active agent used are shown in Table VIII.
# MDA-MB-231 [2] = assay: as above; format: cell-based, human
# Method: as §1
# human tumour cell lines = assay: Inhibition of colony formation (Example 48), comparison with the control D-Trp^6-hGnRH; format: cell-based; conditions: data of Table VIII
# Method: as §1
# In these studies the D-Trp^6-hGnRH analogue (Sigma Co.) commonly used in the tumour therapy was employed as control.
# PC3 [3] = assay: Inhibition of colony formation by GnRH analogues (dose-survival, Example 48); format: cell-based, human; conditions: for % Inhibition of the colony formation: 50 µM
# Method: as §1
# Ishikawa = assay: as above; format: cell-based, human; conditions: 50 µM
# Method: as §1
# [4] = test system: MCF-7 human mammary carcinoma cell line; assay: Inhibition of colony formation (dose-survival relation, Example 18); format: cell-based; conditions: for inhibition of colony formation: concentration not given; for % Inhibition of colony formation: 50 µM (active substance), treated once
# Method: (§2) In the case of cytostatics the cell-damaging effect is not cell-specific. […] One part of the arrested cells again go into the cycle, the other part may perish (apoptosis). […] The investigations were carried out on MCF-7 and MDA-MB-231 human mammary carcinoma cell lines, PC3 human prostate 15 carcinoma cell line and Ishikawa human endometrium carcinoma cell line. Three hundred cells were set into Petri dishes of 3.5 cm in diameter each. The treatment was carried out once, 24 hours following the explantation, then the colonies formed were counted after 9 to 12 days.
# [5] = test system: Ishikawa human endometrium carcinoma cell line; assay: as above; format: cell-based; conditions: for inhibition of colony formation: concentration not given; for % Inhibition of colony formation: 50 µM
# Method: as §2
# MCF-7 [6] = conditions: for % Inhibition of cell division (proliferation): MCF-7, 30 µM active substance, conjugate, treated once, cell count on 7th day
# Method: (§3) The procedure of treatment was as follows. After trypsinization the cells, 400,000 cells of MCF-7, MDA-MB-231 human mammary carcinoma, PC3 human prostate carcinoma or Ishikawa human endometrium tumour each were passed into Petri dishes of 10 cm in diameter. Starting from the day following transfer, the cells were treated with the substances to be tested in solution prepared with the nutrient medium during the exponential growth phase. […]
# MDA-MB-231 [7] = conditions: for % Inhibition of cell division (proliferation): MDA-MB-231, 30 µM active substance, conjugate, treated once
# Method: as §3
# PC3 [8] = assay: In vitro inhibition of cell proliferation (Example 19); format: cell-based, human; conditions: 30 µM, peptide alone, two treatments on days 2 and 4
# Method: The procedure of treatment was as follows. After trypsinization the cells, 400,000 cells of MCF-7, MDA-MB-231 human mammary carcinoma, PC3 human prostate carcinoma or Ishikawa human endometrium tumour each were passed into Petri dishes of 10 cm in diameter. Starting from the day following transfer, the cells were treated with the substances to be tested in solution prepared with the nutrient medium during the exponential growth phase. The cultures were treated with 1 to 50 µM (calculated for the total volume of the culture) or MI-1544 GnRH antagonist, MI-1892 chicken GnRH antagonist or SJ-1004 GnRH antagonist analogues as well as synthetic lamprey GnRH-III hormone every two days and the cell count was determined on the 7th day.
# [9] = test system: PC3 human prostate carcinoma cell line; assay: Inhibition of colony formation (dose-survival relation, Example 18); format: cell-based; conditions: for inhibition of colony formation: concentration not given
# Method: as §2
# [10] = test system: MDA-MB-231 human mammary carcinoma cell line; assay: as above; format: cell-based; conditions: for % Inhibition of colony formation: 50 µM
# Method: as §2
compound,measurement,setting,value
"NCCCC[C@H](NC(=O)[C@H](CO)NC(=O)[C@H](Cc1c[nH]c2ccccc12)NC(=O)[C@H](Cc1c[nH]cn1)NC(=O)[C@@H]1CCC(=O)N1)C(=O)N[C@@H](CC(=O)O)C(=O)N[C@@H](Cc1c[nH]c2ccccc12)C(=O)N[C@@H](CCCCN)C(=O)N1CCC[C@H]1C(=O)NCC(N)=O [2. Lys^5-GnRH-III, Lys^5-GnRH-III]",% Inhibition of the colony formation,MCF-7 [1]; 50 µM,0%
same,% Inhibition of the colony formation,MDA-MB-231 [2]; 50 µM,0%
"NCCCC[C@H](NC(=O)[C@H](Cc1c[nH]c2ccccc12)NC(=O)[C@H](CCC(=O)O)NC(=O)[C@H](Cc1c[nH]cn1)NC(=O)[C@H](CO)NC(=O)[C@H](Cc1c[nH]c2ccccc12)NC(=O)[C@H](Cc1c[nH]cn1)NC(=O)[C@@H]1CCC(=O)N1)C(=O)N1CCC[C@H]1C(=O)NCC(N)=O [8. Glu^6-GnRH-III, Glu^6-GnRH-III]",inhibitory effect compared with the control D-Trp^6-hGnRH,human tumour cell lines,exceeded the inhibitory effect of control
same,% Inhibition of the colony formation,PC3 [3],31%
same,% Inhibition of the colony formation,MCF-7 [1]; 50 µM,44%
same,% Inhibition of the colony formation,MDA-MB-231 [2]; 50 µM,25%
same,% Inhibition of the colony formation,Ishikawa,2%
"NCCCC[C@H](NC(=O)[C@H](Cc1cn(C=O)c2ccccc12)NC(=O)[C@H](CC(=O)O)NC(=O)[C@H](Cc1c[nH]cn1)NC(=O)[C@H](CO)NC(=O)[C@H](Cc1cn(C=O)c2ccccc12)NC(=O)[C@H](Cc1c[nH]cn1)NC(=O)[C@@H]1CCC(=O)N1)C(=O)N1CCC[C@H]1C(=O)NCC(N)=O [14. [Trp(For-Ind)]^3,7- -GnRH-III, [Trp(For-Ind)]^3,7-GnRH-III]",inhibitory effect compared with the control D-Trp^6-hGnRH,human tumour cell lines,approximated the activity of the control
same,% Inhibition of the colony formation,MCF-7 [1]; 50 µM,31%
same,% Inhibition of the colony formation,Ishikawa,24%
"NCCCC[C@H](NC(=O)[C@H](Cc1ccccc1)NC(=O)[C@H](CC(=O)O)NC(=O)[C@H](Cc1c[nH]cn1)NC(=O)[C@H](CO)NC(=O)[C@H](Cc1c[nH]c2ccccc12)NC(=O)[C@H](Cc1c[nH]cn1)NC(=O)[C@@H]1CCC(=O)N1)C(=O)N1CCC[C@H]1C(=O)NCC(N)=O [15. Phe^7 -GnRH-III, Phe^7-GnRH-III]",inhibitory effect compared with the control D-Trp^6-hGnRH,human tumour cell lines,a weak if any effect
same,% Inhibition of the colony formation,MCF-7 [1]; 50 µM,26%
same,% Inhibition of the colony formation,MDA-MB-231 [2]; 50 µM,21%
"CC(C)C[C@H](NC(=O)[C@@H](Cc1c[nH]c2ccccc12)NC(=O)[C@H](CCCCN)NC(=O)[C@H](CO)NC(=O)[C@H](Cc1c[nH]c2ccccc12)NC(=O)[C@H](Cc1c[nH]cn1)NC(=O)[C@@H]1CCC(=O)N1)C(=O)N[C@@H](CCCNC(=N)N)C(=O)N1CCC[C@H]1C(=O)NCC(N)=O [17. Lys^5-DTrp^6-hGnRH, Lys^5,D-Trp^6-hGnRH] ([pGlu]HWSK[dW]LRPG-NH2)",inhibitory effect compared with the control D-Trp^6-hGnRH,human tumour cell lines,a twice stronger inhibition
same,% Inhibition of the colony formation,PC3 [3],18%
same,inhibition of colony formation,PC3 [3]; within the dose range used (1-50 µM),weakly inhibited
same,% Inhibition of the colony formation,MCF-7 [1]; 10 µM,39%
same,% Inhibition of the colony formation,MCF-7 [1]; 50 µM,65%
same,% Inhibition of the colony formation,MDA-MB-231 [2]; 10 µM,30%
same,% Inhibition of the colony formation,MDA-MB-231 [2]; 50 µM,63%
same,% Inhibition of the colony formation,Ishikawa,17%
same,% Inhibition of the colony formation,"Ishikawa; listed as compound 17, 50 µM",15%
"CC(C)C[C@H](NC(=O)[C@@H](Cc1c[nH]c2ccccc12)NC(=O)[C@H](Cc1ccc(O)cc1)NC(=O)[C@H](CO)NC(=O)[C@H](Cc1c[nH]c2ccccc12)NC(=O)[C@H](Cc1c[nH]cn1)NC(=O)[C@@H](N)CCC(=O)O)C(=O)N[C@@H](CCCNC(=N)N)C(=O)N1CCC[C@H]1C(=O)NCC(N)=O [19. H-Glu^1,D-Trp^6 - hGnRH, H-Glu^1,D-Trp^6-hGnRH]",inhibitory effect compared with the control D-Trp^6-hGnRH,human tumour cell lines,approximated the activity of the control
same,% Inhibition of the colony formation,MCF-7 [1]; 10 µM,16.8%
same,% Inhibition of the colony formation,MCF-7 [1]; 50 µM,32.7%
"NCCCC[C@H](NC(=O)[C@H](Cc1c[nH]c2ccccc12)NC(=O)[C@H](CC(=O)O)NC(=O)[C@H](CCCCNC(=O)OCC1c2ccccc2-c2ccccc21)NC(=O)[C@H](CO)NC(=O)[C@H](Cc1c[nH]c2ccccc12)NC(=O)[C@H](Cc1c[nH]cn1)NC(=O)[C@@H]1CCC(=O)N1)C(=O)N1CCC[C@H]1C(=O)NCC(N)=O [Example 26, [Lys(εFmoc)]^5-GnRH-III]",inhibitory effect compared with the control D-Trp^6-hGnRH,human tumour cell lines,a weak if any effect
"NCCCC[C@H](NC(=O)[C@H](CO)NC(=O)[C@H](Cc1c[nH]c2ccccc12)NC(=O)[C@H](Cc1c[nH]cn1)NC(=O)[C@@H]1CCC(=O)N1)C(=O)N[C@H]1CC(=O)NCCCC[C@@H](C(=O)N2CCC[C@H]2C(=O)NCC(N)=O)NC(=O)[C@H](Cc2c[nH]c3ccccc23)NC1=O [Lys^5, cyclo[Asp^6-Lys^8]-GnRH-III]",inhibitory effect compared with the control D-Trp^6-hGnRH,human tumour cell lines,exceeded the inhibitory effect of control
same,inhibition of colony formation,[4],44%
same,inhibition of colony formation,[5],13%
same,% Inhibition of the colony formation,MCF-7 [1]; 50 µM,44%
same,% Inhibition of the colony formation,Ishikawa,13%
"CC(C)C[C@H](NC(=O)[C@@H](CCCCN)NC(=O)[C@H](Cc1ccc(O)cc1)NC(=O)[C@H](CO)NC(=O)[C@@H](Cc1c[nH]c2ccccc12)NC(=O)[C@@H](Cc1ccccc1)NC(=O)[C@@H]1CCC(=O)N1)C(=O)N[C@@H](CCCNC(=N)N)C(=O)N1CCC[C@H]1C(=O)NCC(N)=O [SJ-1004, D-Phe^2,D-Trp^3,D-Lys^6-hGnRH, reference compound] ([pGlu][dF][dW]SY[dK]LRPG-NH2)",inhibition of proliferation (decrease in cell count),"MCF-7 [6]; MCF-7 (10% FCS), 30 µM, peptide alone, treated every two days (two treatments, days 2 and 4)",17%
same,inhibition of proliferation (decrease in cell count),"MDA-MB-231 [7]; MDA-MB-231 (10% FCS), 30 µM, peptide alone, treated every two days (two treatments)",23%
same,inhibition of proliferation,PC3 [8],10%
same,% Inhibition of colony formation,[9]; 50 µM,0%
same,% Inhibition of colony formation,[4],31%
same,% Inhibition of colony formation,[10],26%
same,% Inhibition of colony formation,[5],5%
"Ac-D-Trip^1,3,D-Cpa^2,{Lys[n-poly(N-vinylpyrrolidone-co-maleic acid)-Gly-Leu-Gly-]}^5,[a-Asp(DEA)]^6, D-Ala^10-GnRH [P-GLG-1892]",% Inhibition of cell division (proliferation),MCF-7 [6]; listed as 13. P-GLG-MI-1892,33%
same,% Inhibition of cell division (proliferation),MDA-MB-231 [7]; listed as 13. P-GLG-MI-1892,35%
"Ac-D-Trp^1,3,D-Cpa^2,{Lys[n-poly(N-vinylpyrrolidone-co-maleic acid)-Phe-Leu-Gly-]}^5,a-Asp (DEA)]^6,D-Ala^10-GnRH [P-FLG-1892]",% Inhibition of cell division (proliferation),MCF-7 [6]; listed as 12. P-FLG-MI-1892,33%
same,% Inhibition of cell division (proliferation),MDA-MB-231 [7]; listed as 12. P-FLG-MI-1892,35%
"pGlu-His-Trp-Ser-Tyr-D-Trp-Leu-Arg-Pro-Gly-NH2 [D-Trp^6-hGnRH (Decapeptyl), reference compound]",% Inhibition of the colony formation,MCF-7 [1]; 10 µM,17.1%
same,% Inhibition of the colony formation,MCF-7 [1]; 50 µM,36.7%
same,% Inhibition of the colony formation,MDA-MB-231 [2]; 10 µM,15.7%
same,% Inhibition of the colony formation,MDA-MB-231 [2]; 50 µM,38.7%
"{Lys[n-poly(N-vinylpyrrolidone-co-maleic acid)-Gly-Phe-Leu-Gly-]}^4,-GnRH-III [P-GFLG-Lys^4-GnRH-III]",% Inhibition of colony formation,[9]; 30 µM,94%
same,inhibition of colony formation,[9],94%
same,% Inhibition of colony formation,[4],68%
same,inhibition of colony formation,[4],68%
same,% Inhibition of colony formation,[10],75%
same,inhibition of colony formation,[10]; concentration not given,75%
same,% Inhibition of colony formation,[5],25%
same,inhibition of colony formation,[5],25%
"{Lys[n-poly(N-vinylpyrrolidone-co-maleic acid)-Gly-Phe-Leu-Gly-]}^5,cyclo(Asp^6-Lys^8)-GnRH-III [P-GFLG-Lys^5-cyclo(Asp^6,Lys^8)-GnRH-III]",% Inhibition of colony formation,[9]; 50 µM,100%
same,inhibition of colony formation,[9],100%
same,% Inhibition of colony formation,[4],78%
same,% Inhibition of colony formation,[10],82%
same,% Inhibition of colony formation,[5],19%
same,inhibition of colony formation,[5],19%

# — patent EP0728012B1, “NOVEL GnRH ANALOGUES WITH ANTITUMOUR EFFECTS AND PHARMACEUTICAL COMPOSITIONS THEREOF” (Lovas, Sandor, priority 1994, dated 1996)
